Results: publication PMC7763155, “Design and Characterisation of Inhibitory Peptides against Bleg1_2478, an Evolutionary Divergent B3 Metallo-β-lactamase” (Molecules, 2020)
Where two headings read alike, the source gives them in different places. Each block holds one molecule with its values, some of them ahead of it. No end group written: not given here.

Assays:
Bleg1_2478 [1] = biological target: T1, Bleg1_2478 (Shouchella lehensis (Bacillus lehensis), UniProt A0A060M4R1); experiment: Isothermal titration calorimetry (ITC) with Bleg1_2478; format: binding, Bacillus lehensis G1
Procedure: ITC measurement was performed at 30 °C with nanoisothermal titration calorimetry, TA Instrument, USA at Malaysian Genome Institute. The peptides were dissolved in 20 mM sodium phosphate buffer (Na2HPO4-NaH2PO4) (pH 7.0). Bleg1_2478 protein sample, the selected peptide inhibitors and 20 mM sodium phosphate buffer (Na2HPO4-NaH2PO4) (pH 7.0) were firstly degassed by using Themovac Unit. The experiment was carried out at 30 °C with stirring speed of 300 rpm. The calorimetry data were subsequently analysed using NanoAnalyze Software v3.8.0. (New Castle, DE, USA)

Bleg1_2478 [2] = biological target: T1, Bleg1_2478; settings: in words; ref [22]; cited from earlier work
Description: Biochemical characterization of purified recombinant Bleg1_2478 further confirmed that it was indeed capable of degrading β-lactam antibiotics, with ampicillin ...

Class A SBLs = settings: in words; ref [17],[18],[19]; cited from earlier work
Description: (§1) AMR among bacteria can be acquired through various means, i.e., through: (1) hydrolysis or inactivation of antibiotics by synthesizing enzymes; (2) redox process by exploiting the oxidation or reduction of the antibiotics; (3) modification of antibiotics by chemical substitution; (4) modification of the inhibition binding site in the target; (5) mutations on genes that encode the target or efflux pump that affect antibiotics uptake; (6) horizontal gene transfer where resistant genes are transferred from one pathogen to another via transduction, conjugation or ...

MBLs = settings: in words; ref [20]; cited from earlier work
Description: as §1

Bleg1_2478 [3] = biological target: T1, Bleg1_2478; experiment: Inhibitory assay of designed peptides against Bleg1_2478 (ampicillin hydrolysis); format: biochemical, Bacillus lehensis G1; settings: pH 7.0, 30 °C, triplicates
Procedure: The ability of the peptides in inhibiting Bleg1_2478 was investigated via inhibitory assay. Firstly, enzymatic assay of purified Bleg1_2478 recombinant protein using ampicillin as the substrate was performed, serving as the positive control. The assay was carried out based on the method by. All assays were performed at 30 °C in total assay volume of 3 mL containing 20 mM sodium phosphate (Na2HPO4-NaH2PO4) (pH 7.0), 20 µg/mL BSA, 100 µM ZnSO4, 10 µM Bleg1_2478 and 100 µM ampicillin. The reaction was monitored by recording the absorbance at 235 nm every 1 min for a total duration of 6 min using a 50 Bio UV Visible Spectrophotometry. […] All assays were done in triplicates.

[4] = biological target: Bleg1_2478 recombinant protein (Bacillus lehensis G1)
[5] = biological target: Bleg1_2478 recombinant protein (Bacillus lehensis G1); remark: listed apart in the source
[6] = biological target: Bleg1_2478 recombinant protein (Bacillus lehensis G1); experiment: ITC; nano isothermal titration calorimetry (TA Instruments), 30 °C, 20 mM sodium phosphate buffer pH 7.0, stirring 300 rpm; which partner was in the cell and the concentrations are not stated
[7] = 10 µM peptide, 10 µM enzyme, 100 µM ampicillin
[8] = ITC, 30 °C, 20 mM sodium phosphate pH 7.0, 300 rpm, read-out: Dissociation constant, Kd

Molecule: CC1(C)S[C@@H]2[C@H](NC(=O)[C@H](N)c3ccccc3)C(=O)N2[C@H]1C(=O)O [Ampicillin, ampicillin, reference compound]
Kd (Bleg1_2478 [1]): 1470 nM
Entropy, ΔS (Bleg1_2478 [1]; ITC, 30 °C, 20 mM sodium phosphate pH 7.0): −248.00 J/mol·K
Association constant, Ka (Bleg1_2478 [1]; ITC, 30 °C, 20 mM sodium phosphate pH 7.0, 300 rpm): 680000 M⁻¹
Number of binding sites from stoichiometry (Bleg1_2478 [1]; ITC, in words): one binding site
Substrate preference (Bleg1_2478 [2]): preferred substrate

Molecule: O=C(O)[C@H]1/C(=C/CO)O[C@@H]2CC(=O)N21 [clavulanate]
Effectiveness against Class A SBLs (Class A SBLs): effective
Effectiveness against MBLs (MBLs): not

Molecule: CC1(C)[C@H](C(=O)O)N2C(=O)C[C@H]2S1(=O)=O [sulbactam]
Effectiveness against Class A SBLs (Class A SBLs): effective
Effectiveness against MBLs (MBLs): not

Molecule: C[C@]1(Cn2ccnn2)[C@H](C(=O)O)N2C(=O)C[C@H]2S1(=O)=O [tazobactam]
Effectiveness against Class A SBLs (Class A SBLs): effective
Effectiveness against MBLs (MBLs): not

Molecule: RSWPWH [RSWPWH]
Inhibition of Bleg1_2478 (Bleg1_2478 [3]; 0.75 µM peptide): 12%
Inhibition of Bleg1_2478 (Bleg1_2478 [3]; [7]): 92%
Kd (Bleg1_2478 [1]; [8]): 497 nM
Fold increase in binding strength (Kd) (Bleg1_2478 [1]; ITC, compared to ampicillin): 34 fold

Molecule: SSWWDR [SSWWDR]
Inhibition of Bleg1_2478 (Bleg1_2478 [3]; 0.25 µM peptide): 4%
Inhibition of Bleg1_2478 (Bleg1_2478 [3]; 0.50 µM peptide): 48%
Inhibition of Bleg1_2478 (Bleg1_2478 [3]; 0.75 µM peptide): 64%
Inhibition of Bleg1_2478 (Bleg1_2478 [3]; [7]): 88%
Inhibition of Bleg1_2478 (Bleg1_2478 [3]; 20 µM peptide, 10 µM enzyme, 100 µM ampicillin): 96%
Kd (Bleg1_2478 [1]; [8]): 992 nM
Fold increase in binding affinity (Ka) (Bleg1_2478 [1]; ITC, compared to ampicillin): 1.5 fold
Fold increase in binding strength (Kd) (Bleg1_2478 [1]; ITC, compared to ampicillin): 68 fold

IC50 of inhibition of Bleg1 2478 enzymatic activity (hydrolysis of 100 µM ampicillin by 10 µM Bleg1 2478, absorbance at 235 nm, 30 °C, pH 7.0) [4]: 0.5 µM
percent inhibition of Bleg1 2478 activity on ampicillin at 0.25 to 20 µM peptide (4% at 0.25 µM, 48% at 0.50 µM, 64% at 0.75 µM, 76% at 1 µM, 88% at 10 µM, 96% at 20 µM) [5]: 96%
Ka [6]: 1.01e+06 M⁻¹
Kd [6]: 992 nM
stoichiometry N [6]: 0.722
Molecule: SSWWDR [SSWWDR inhibitory peptide]

IC50 of inhibition of Bleg1 2478 enzymatic activity (hydrolysis of 100 µM ampicillin by 10 µM Bleg1 2478, absorbance at 235 nm, 30 °C, pH 7.0) [4]: 0.9 µM
percent inhibition of Bleg1 2478 activity on ampicillin at 0.75 to 20 µM peptide (12% at 0.75 µM, 54% at 0.90 µM, 68% at 1 µM, 92% at 10 µM, the same at 20 µM) [5]: 92%
Ka [6]: 2.01e+06 M⁻¹
Kd [6]: 497 nM
stoichiometry N [6]: 0.941
Molecule: RSWPWH [RSWPWH inhibitory peptide]
